Assay results published in patent publication US20240025862A1, “SUBSTITUTED N-PHENYLURACILS AND SALTS THEREOF, AND USE THEREOF AS HERBICIDAL ACTIVE SUBSTANCES” (Bayer Aktiengesellschaft, priority 2020, published 2024).

How the values were obtained:
Type in all cases: in vivo
[1] = tested on: Abutilon theophrasti (ABUTH); experiment: Post-emergence herbicidal action, greenhouse pot test; conditions: rated visually after about 3 weeks vs untreated controls, 100% = plants have died
In short: (§1)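 Activity was scored by eye about 3 weeks after treatment against untreated plants, where 100% means dead plants and 0% means no difference. Plants at the one-leaf stage received a foliar spray of WP or EC formulations in water plus 0.5% additive (600 l/ha, up to 20 g/ha). Plants were grown in sandy loam pots in a greenhouse for 2–3 weeks before spraying.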

[2] = tested on: Amaranthus retroflexus (AMARE); experiment: as above; conditions: rated visually after about 3 weeks vs untreated controls, 100% = plants have died
In short: as §1

[3] = tested on: Avena fatua (AVEFA); experiment: as above; conditions: 20 g/ha, rated visually after about 3 weeks vs untreated controls, 100% = plants have died
In short: as §1

[4] = tested on: Hordeum murinum (HORMU); experiment: as above; conditions: rated visually after about 3 weeks vs untreated controls, 100% = plants have died
In short: as §1

[5] = tested on: Lolium rigidum (LOLRI); experiment: as above; conditions: for Post-emergence action against LOLRI in %: dosage 20 g/ha
In short: as §1

[6] = tested on: Pharbitis purpurea (PHBPU); experiment: as above
In short: as §1

[7] = tested on: Polygonum convolvulus (POLCO); experiment: as above
In short: as §1

[8] = tested on: Stellaria media (STEME); experiment: as above
In short: as §1

[9] = tested on: Veronica persica (VERPE); experiment: as above
In short: as §1

[10] = tested on: Viola tricolor (VIOTR); experiment: as above
In short: as §1

[11] = tested on: Alopecurus myosuroides (ALOMY); experiment: Post-emergence herbicidal action, greenhouse pot test (also comparative test C); conditions: rated visually after about 3 weeks vs untreated controls, 100% = plants have died
In short: (§2)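 Greenhouse pot plants in sandy loam were sprayed post-emergence at the one-leaf stage (2–3 weeks after sowing) with WP or EC formulations plus 0.5% additive at 600 l/ha water. Activity was rated visually after about 3 weeks versus untreated controls (100% = dead, 0% = like control); rates were 20 g/ha or less, and 5 g/ha or less in the comparative test.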

[12] = tested on: Echinochloa crus-galli (ECHCG); experiment: as above; conditions: for Post-emergence action at 1.25 g/ha against ECHCG in %: rated visually after about 3 weeks vs untreated controls, 100% = plants have died
In short: as §2

[13] = tested on: Matricaria inodora (MATIN); experiment: as above
In short: as §2

[14] = tested on: Setaria viridis (SETVI); experiment: as above; conditions: for Post-emergence action against SETVI: 20 g/ha
In short: as §2

[15] = tested on: Brassica napus (BRSNW); experiment: Post-emergence crop plant compatibility, greenhouse pot test; conditions: 1.25 g/ha, vs untreated controls
In short: (§3)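 Compatibility was scored as visual % effect against untreated controls about 3 weeks after spraying green plant parts at the one-leaf stage. Formulations (WP/EC) were applied in aqueous form with 0.5% additive, 600 l/ha, to greenhouse-grown pot plants.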

[16] = tested on: Triticum aestivum (TRZAS); experiment: as above; conditions: 1.25 g/ha, vs untreated controls
In short: as §3

[17] = tested on: Zea mays (ZEAMX); experiment: as above; conditions: vs untreated controls
In short: as §3

[18] = tested on: Oryza sativa (ORYSA); experiment: Post-emergence crop plant compatibility, greenhouse pot test (also comparative test C); conditions: 1.25 g/ha, vs untreated controls
In short: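 Visual damage versus untreated plants (0% = like control, 100% = plants died) was scored about 3 weeks after a post-emergence spray in greenhouse pots. Treatment: one-leaf stage, WP or EC in water at 600 l/ha with 0.5% additive; a/b/c mark different dosages on the same crop.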

## COCCOCCOC(=O)COc1ccccc1Sc1cc(-n2c(=O)cc(C(F)(F)F)n(C)c2=O)c(F)cc1Cl [I.1-23]
[1]
  Post-emergence action at 1.25 g/ha against ABUTH in %: 100%
  Post-emergence action at 5 g/ha against ABUTH in %: 100%
  Post-emergence action at 20 g/ha against ABUTH in %: 100%
[2]
  Post-emergence action at 1.25 g/ha against AMARE in %: 100%
  Post-emergence action at 5 g/ha against AMARE in %: 100%
  Post-emergence action at 20 g/ha against AMARE in %: 100%
[3]
  Post-emergence action at 20 g/ha against AVEFA in %: 80%
[4]
  Post-emergence action at 5 g/ha against HORMU in %: 80%
  Post-emergence action at 20 g/ha against HORMU in %: 100%
[5]
  Post-emergence action against LOLRI in %: 80%
[6]; dosage 1.25 g/ha
  Post-emergence action against PHBPU in %: 100%
[6]; dosage 5 g/ha
  Post-emergence action against PHBPU in %: 100%
[6]; dosage 20 g/ha
  Post-emergence action against PHBPU in %: 100%
[7]; dosage 1.25 g/ha
  Post-emergence action against POLCO in %: 100%
[7]; dosage 5 g/ha
  Post-emergence action against POLCO in %: 100%
[7]; dosage 20 g/ha
  Post-emergence action against POLCO in %: 100%
[8]; 1.25 g/ha
  Post-emergence action against STEME: 80%
[8]; 5 g/ha
  Post-emergence action against STEME: 100%
[8]; 20 g/ha
  Post-emergence action against STEME: 100%
[9]; 1.25 g/ha
  Post-emergence action against VERPE: 100%
[9]; 5 g/ha
  Post-emergence action against VERPE: 100%
[9]; 20 g/ha
  Post-emergence action against VERPE: 100%
[10]; 1.25 g/ha
  Post-emergence action against VIOTR: 100%
[10]; 5 g/ha
  Post-emergence action against VIOTR: 100%
[10]; 20 g/ha
  Post-emergence action against VIOTR: 100%
[11]
  Post-emergence action at 5 g/ha against ALOMY in %: 90%
  Post-emergence action at 20 g/ha against ALOMY in %: 90%
[12]
  Post-emergence action at 1.25 g/ha against ECHCG in %: 90%
[12]; dosage 5 g/ha
  Post-emergence action against ECHCG in %: 100%
[12]; dosage 20 g/ha
  Post-emergence action against ECHCG in %: 100%
[13]; dosage 1.25 g/ha
  Post-emergence action against MATIN in %: 80%
[13]; dosage 5 g/ha
  Post-emergence action against MATIN in %: 100%
[13]; dosage 20 g/ha
  Post-emergence action against MATIN in %: 100%
[14]
  Post-emergence action against SETVI: 100%
[14]; dosage 1.25 g/ha
  Post-emergence action against SETVI in %: 100%
[14]; dosage 5 g/ha
  Post-emergence action against SETVI in %: 100%
[15]
  Post-emergence action against BRSNW (crop plant compatibility): 20%
[16]
  Post-emergence action against TRZAS (crop plant compatibility): 20%
[17]; 1.25 g/ha
  Post-emergence action against ZEAMX (crop plant compatibility): 10%
[18]
  Post-emergence action against ORYSA (crop plant compatibility): 20%

## COCCCOC(=O)COc1ccccc1Sc1cc(-n2c(=O)cc(C(F)(F)F)n(C)c2=O)c(F)cc1Cl [I.1-26]
[1]
  Post-emergence action at 1.25 g/ha against ABUTH in %: 100%
  Post-emergence action at 5 g/ha against ABUTH in %: 100%
  Post-emergence action at 20 g/ha against ABUTH in %: 100%
[2]
  Post-emergence action at 1.25 g/ha against AMARE in %: 100%
  Post-emergence action at 5 g/ha against AMARE in %: 100%
  Post-emergence action at 20 g/ha against AMARE in %: 100%
[3]
  Post-emergence action at 20 g/ha against AVEFA in %: 80%
[4]
  Post-emergence action at 5 g/ha against HORMU in %: 80%
  Post-emergence action at 20 g/ha against HORMU in %: 90%
[5]; 5 g/ha, rated visually after about 3 weeks vs untreated controls, 100% = plants have died
  Post-emergence action at 5 g/ha against LOLRI in %: 80%
[5]
  Post-emergence action against LOLRI in %: 90%
[6]; dosage 1.25 g/ha
  Post-emergence action against PHBPU in %: 100%
[6]; dosage 5 g/ha
  Post-emergence action against PHBPU in %: 100%
[6]; dosage 20 g/ha
  Post-emergence action against PHBPU in %: 100%
[7]; dosage 1.25 g/ha
  Post-emergence action against POLCO in %: 100%
[7]; dosage 5 g/ha
  Post-emergence action against POLCO in %: 100%
[7]; dosage 20 g/ha
  Post-emergence action against POLCO in %: 100%
[8]; 1.25 g/ha
  Post-emergence action against STEME: 100%
[8]; 5 g/ha
  Post-emergence action against STEME: 100%
[8]; 20 g/ha
  Post-emergence action against STEME: 100%
[9]; 1.25 g/ha
  Post-emergence action against VERPE: 100%
[9]; 5 g/ha
  Post-emergence action against VERPE: 100%
[9]; 20 g/ha
  Post-emergence action against VERPE: 100%
[10]; 1.25 g/ha
  Post-emergence action against VIOTR: 100%
[10]; 5 g/ha
  Post-emergence action against VIOTR: 100%
[10]; 20 g/ha
  Post-emergence action against VIOTR: 100%
[11]
  Post-emergence action at 5 g/ha against ALOMY in %: 80%
  Post-emergence action at 20 g/ha against ALOMY in %: 90%
[12]
  Post-emergence action at 1.25 g/ha against ECHCG in %: 90%
[12]; dosage 5 g/ha
  Post-emergence action against ECHCG in %: 90%
[12]; dosage 20 g/ha
  Post-emergence action against ECHCG in %: 100%
[13]; dosage 1.25 g/ha
  Post-emergence action against MATIN in %: 80%
[13]; dosage 5 g/ha
  Post-emergence action against MATIN in %: 80%
[13]; dosage 20 g/ha
  Post-emergence action against MATIN in %: 100%
[14]
  Post-emergence action against SETVI: 100%
[14]; dosage 1.25 g/ha
  Post-emergence action against SETVI in %: 100%
[14]; dosage 5 g/ha
  Post-emergence action against SETVI in %: 100%
[15]
  Post-emergence action against BRSNW (crop plant compatibility): 20%
[17]; 1.25 g/ha
  Post-emergence action against ZEAMX (crop plant compatibility): 10%
[17]; 5 g/ha
  Post-emergence action against ZEAMX (crop plant compatibility): 20%
[18]
  Post-emergence action against ORYSA (crop plant compatibility): 10%
